Test: Insulin oral delivery in rats (blood glucose)
Type: in vivo, Male Sprague-Dawley rats
Settings: delivery agent 200 mg/kg with insulin 0.50 mg/kg, 1 ml/kg
Excerpt: The typical dosing and sampling protocols were as follows.

Going from O=C(O)CCC(=O)c1ccccc1 [Compound 1, 4-Oxo-4-phenyl-butyric acid] to O=C(O)CCCC(=O)c1ccccc1 [Compound 8], the “% Change in Glucose (from control)” value rises from −30.7% to −1.3%.

Compared with COc1ccc(C(=O)CCC(=O)O)cc1 [Compound 5, 4-(4-Methoxy-phenyl)-4-oxo-butyric acid], COc1ccc(C(=O)CCCC(=O)O)cc1 [Compound 6, 5-(4-Methoxy-phenyl)-5-oxo-pentanoic acid] is lower in “% Change in Glucose (from control)” value: −12.1% for the first, −18.3% for the second.

First: COc1c(C)cc(C(=O)CCCCC(=O)O)cc1C [Compound 10]
Second: Cc1ccc(C(=O)CCCCC(=O)O)cc1C [Compound 16]
The “% Change in Glucose (from control)” value of the first is higher: −13.5% for the first, −25.1% for the second.

First: COc1ccccc1C(=O)CCC(=O)O [Compound 12]
Second: Cc1ccc(C)c(C(=O)CCC(=O)O)c1 [Compound 19]
The “% Change in Glucose (from control)” value of the first is higher: −2.3% for the first, −28.3% for the second.

Going from COc1ccc(C(=O)CCCCC(=O)O)cc1 [Compound 14] to O=C(O)CCCC(=O)c1ccc(Cl)cc1 [Compound 36], the “% Change in Glucose (from control)” value falls from −2.0% to −31.9%.

Going from Cc1ccc(C(=O)CCC(=O)O)cc1C [Compound 17] to Cc1ccc(C(=O)CCC(=O)O)cc1 [Compound 38], the “% Change in Glucose (from control)” value falls from −9.5% to −26.9%.

First: Cc1cc(C)cc(C(=O)CCCCCCC(=O)O)c1 [Compound 20]
Second: Cc1cc(C)cc(C(=O)CCCCC(=O)O)c1 [Compound 23]
The “% Change in Glucose (from control)” value of the first is higher: −6.6% for the first, −7.5% for the second.

First: O=C(O)CCCCC(=O)c1cc(Cl)ccc1Cl [Compound 21]
Second: O=C(O)CCC(=O)c1cc(Cl)ccc1Cl [Compound 22]
The “% Change in Glucose (from control)” value of the first is lower: −40.8% for the first, −16.3% for the second.

Compared with O=C(O)CCCCCCC(=O)c1ccccc1 [Compound 25], O=C(O)CCCCCC(=O)c1ccccc1 [Compound 28] is lower in “% Change in Glucose (from control)” value: −20.8% for the first, −26.4% for the second.

First: CCc1ccc(C(=O)CCC(=O)O)cc1 [Compound 29]
Second: CCCCCCOc1ccc(C(=O)CCC(=O)O)cc1 [Compound 34]
The “% Change in Glucose (from control)” value of the first is lower: −35.4% for the first, 9.4% for the second.

Compared with O=C(O)CCC(=O)c1ccc(F)cc1F [Compound 30], O=C(O)CCC(=O)c1cc(F)ccc1F [Compound 35] is lower in “% Change in Glucose (from control)” value: −10.5% for the first, −11.8% for the second.

First: O=C(O)CCCCC(=O)c1cc(F)cc(F)c1 [Compound 37]
Second: O=C(O)CCCCCC(=O)c1cccc(Oc2ccccc2)c1 [Compound 42]
The “% Change in Glucose (from control)” value of the first is lower: −39.0% for the first, −13.8% for the second.

Compared with O=C(O)CCCC(=O)c1ccc(Oc2ccccc2)cc1 [Compound 40], O=C(O)CCCC(=O)c1cccc(Oc2ccccc2)c1 [Compound 41] is lower in “% Change in Glucose (from control)” value: −3.9% for the first, −16.5% for the second.

From patent publication US9035085B2, “Aryl ketone compounds and compositions for delivering active agents” (EMISPHERE TECHNOLOGIES, INC., priority 2004, dated 2015)
